Experimental data published in ChEMBL document CHEMBL1201862, “PubChem BioAssay data set” (2004).
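Interpolation was linear, between the two tested concentrations surrounding the appropriate level; five concentrations were tested over 48 hours in 96-well plates. GI50 marks 50% less growth.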 Calls of active or inactive are those of the source. No stated cut-off is given here; in the data, active = GI50 up to about 1.1 µM and inactive = higher.

Columns and labels:
Assay in all cases: growth of human tumour cells (NCI), 48 h
SK-MEL-5 = tested on: SK-MEL-5
U-251 = tested on: U-251
MCF7 = tested on: MCF7
HOP-62 = tested on: HOP-62
OVCAR-3 = tested on: OVCAR-3
SN12C = tested on: SN12C
RPMI-8226 = tested on: RPMI-8226
LOX IMVI = tested on: LOX IMVI
K562 = tested on: K562
OVCAR-5 = tested on: OVCAR-5
SK-MEL-2 = tested on: SK-MEL-2
T47D = tested on: T47D
SR = tested on: SR
NCI-H226 = tested on: NCI-H226
UO-31 = tested on: UO-31
A498 = tested on: A498
HL-60 = tested on: HL-60
OVCAR-4 = tested on: OVCAR-4
CCRF-CEM = tested on: CCRF-CEM
MDA-N = tested on: MDA-N

Row | Structure (SMILES) | GI50 (SK-MEL-5) | GI50 (U-251) | GI50 (MCF7) | GI50 (HOP-62) | GI50 (OVCAR-3) | GI50 (SN12C) | GI50 (RPMI-8226) | GI50 (LOX IMVI) | GI50 (K562) | GI50 (OVCAR-5) | GI50 (SK-MEL-2) | GI50 (T47D) | GI50 (SR) | GI50 (NCI-H226) | GI50 (UO-31) | GI50 (A498) | GI50 (HL-60) | GI50 (OVCAR-4) | GI50 (CCRF-CEM) | GI50 (MDA-N)
1 | CSc1nc(N)c(NC2OC(CO)C(O)C2O)c(=O)[nH]1 (stereo not given) | > 100 µM (inactive) | > 100 µM (inactive) | > 100 µM (inactive) | > 100 µM (inactive) | > 100 µM (inactive) | > 100 µM (inactive) | > 100 µM (inactive) | > 100 µM (inactive) | > 100 µM (inactive) | > 100 µM (inactive) | > 100 µM (inactive) | > 100 µM (inactive) | > 100 µM (inactive) | > 100 µM (inactive) | > 100 µM (inactive) | > 100 µM (inactive) | > 100 µM (inactive) | > 100 µM (inactive) | > 100 µM (inactive) | > 100 µM (inactive)
2 | C[C@H](CCC(=O)O)[C@H]1CC[C@H]2[C@@H]3[C@H](O)C[C@@H]4C[C@H](O)CC[C@]4(C)[C@H]3C[C@H](O)[C@]12C | > 100 µM (inactive) | > 100 µM (inactive) | > 100 µM (inactive) | > 100 µM (inactive) | > 100 µM (inactive) | > 100 µM (inactive) | > 100 µM (inactive) | > 100 µM (inactive) | > 100 µM (inactive) | > 100 µM (inactive) | > 100 µM (inactive) | > 100 µM (inactive) | > 100 µM (inactive) | > 100 µM (inactive) | > 100 µM (inactive) | > 100 µM (inactive) | > 100 µM (inactive) | > 100 µM (inactive) | > 100 µM (inactive) | > 100 µM (inactive)
3 | Cn1c(-c2ccc[se]2)ccc1-c1ccc(C=O)[se]1 | 20.7 µM (inactive) | 0.0811 µM (active) | 0.124 µM (active) | 0.385 µM (active) | 0.366 µM (active) | 14.9 µM (inactive) | 1.03 µM (active) | 8.99 µM (inactive) | 0.323 µM (active) | 0.0418 µM (active) | 65.3 µM (inactive) | 0.325 µM (active) | 7.45 µM (inactive) | 0.865 µM (active) | > 76.4 µM (inactive) | 1.17 µM (inactive) | 9.31 µM (inactive) | 0.247 µM (active) | 0.859 µM (active) | 6.34 µM (inactive)
4 | O=C(Cc1ccccc1)NCCc1ccc(O)c(O)c1 | > 100 µM (inactive) | 78.7 µM (inactive) | > 100 µM (inactive) | > 100 µM (inactive) | 35 µM (inactive) | 95.9 µM (inactive) | 15.6 µM (inactive) | 44.7 µM (inactive) | 17.9 µM (inactive) | > 100 µM (inactive) | 24.8 µM (inactive) | > 100 µM (inactive) | 23.3 µM (inactive) | > 100 µM (inactive) | 41.2 µM (inactive) | > 100 µM (inactive) | 13.8 µM (inactive) | 13 µM (inactive) | 5.14 µM (inactive) | 17.4 µM (inactive)
5 | CCCc1cc(-c2ccc(-c3cc(CCC)c(C=O)[nH]3)s2)[nH]c1C=O | 29.4 µM (inactive) | 61.1 µM (inactive) | 64.3 µM (inactive) | > 100 µM (inactive) | 12.4 µM (inactive) | > 69.2 µM (inactive) | > 100 µM (inactive) | 5.89 µM (inactive) | 5.48 µM (inactive) | 15.1 µM (inactive) | 22 µM (inactive) | 6.05 µM (inactive) | 2.14 µM (inactive) | > 100 µM (inactive) | 22.6 µM (inactive) | > 69.5 µM (inactive) | 4.3 µM (inactive) | 47.4 µM (inactive) | 2.44 µM (inactive) | 4.34 µM (inactive)
6 | O=C(Sc1c(-c2ccccc2)c(=O)n(-c2ccccc2)c(=S)n1-c1ccccc1)c1ccco1 | 97.9 µM (inactive) | > 100 µM (inactive) | > 100 µM (inactive) | > 100 µM (inactive) | 99.3 µM (inactive) | > 100 µM (inactive) | 33.8 µM (inactive) | > 100 µM (inactive) | 34 µM (inactive) | > 100 µM (inactive) | > 100 µM (inactive) | > 100 µM (inactive) | 29.2 µM (inactive) | > 100 µM (inactive) | > 100 µM (inactive) | > 100 µM (inactive) | 21.5 µM (inactive) | > 100 µM (inactive) | 18.7 µM (inactive) | > 90.6 µM (inactive)
7 | O=[N+]([O-])/C=C/c1cn(CCCCCn2cc(/C=C/[N+](=O)[O-])c3ccccc32)c2ccccc12 | 1.75 µM (inactive) | 1.61 µM (inactive) | 0.408 µM (active) | 3.93 µM (inactive) | 1.78 µM (inactive) | 3.16 µM (inactive) | 0.24 µM (active) | 0.611 µM (active) | 0.83 µM (active) | 9.55 µM (inactive) | 13.5 µM (inactive) | 8.22 µM (inactive) | 0.973 µM (active) | 0.805 µM (active) | 3.64 µM (inactive) | 1.94 µM (inactive) | 0.787 µM (active) | 2.44 µM (inactive) | 1.04 µM (active) | 0.322 µM (active)
8 | S=C1Cc2cc3ccccc3nc2-c2ccccc2N1 | 44.8 µM (inactive) | 13.7 µM (inactive) | 38.9 µM (inactive) | 11.6 µM (inactive) | 9.57 µM (inactive) | 16.7 µM (inactive) | > 50.7 µM (inactive) | 33.4 µM (inactive) | > 100 µM (inactive) | 51.2 µM (inactive) | 36.7 µM (inactive) | 8.3 µM (inactive) | 29 µM (inactive) | 16.1 µM (inactive) | 9.06 µM (inactive) | 6.31 µM (inactive) | > 100 µM (inactive) | 12.4 µM (inactive) | > 100 µM (inactive) | 5.13 µM (inactive)
9 | O=S1(=O)NN=C(NCc2ccc(F)cc2)c2ccccc21 | > 68.2 µM (inactive) | 33 µM (inactive) | > 100 µM (inactive) | 39.6 µM (inactive) | 67.5 µM (inactive) | > 100 µM (inactive) | > 40.7 µM (inactive) | 36.3 µM (inactive) | 21 µM (inactive) | > 100 µM (inactive) | > 100 µM (inactive) | > 100 µM (inactive) | > 44.7 µM (inactive) | > 100 µM (inactive) | > 100 µM (inactive) | > 100 µM (inactive) | 13.1 µM (inactive) | > 48 µM (inactive) | 23.7 µM (inactive) | > 100 µM (inactive)
10 | C[C@]12CC[C@H]3[C@@H](CCC4=C[C@@H](OC5OCC(OC6OC(CO)C(O)C(O)C6O)C(O)C5O)CC[C@@]43C=O)[C@@]1(O)CCC2C1=CC(=O)OC1 (stereo not given in full) | 0.385 µM (active) | 0.849 µM (active) | 0.94 µM (active) | 0.431 µM (active) | 0.375 µM (active) | 0.364 µM (active) | 0.628 µM (active) | 0.63 µM (active) | 0.397 µM (active) | 1.86 µM (inactive) | 1.62 µM (inactive) | 1.5 µM (inactive) | 0.221 µM (active) | 2.15 µM (inactive) | 0.561 µM (active) | 0.755 µM (active) | 0.244 µM (active) | 0.237 µM (active) | 0.244 µM (active) | 1.01 µM (active)
11 | COc1ccc2c3c([nH]c2c1)CCN(CCCC(=O)c1ccc(F)cc1)C3 | 13.2 µM (inactive) | 17.2 µM (inactive) | 17.3 µM (inactive) | 12.2 µM (inactive) | 18.8 µM (inactive) | 15.9 µM (inactive) | 16.7 µM (inactive) | 12.7 µM (inactive) | 16.6 µM (inactive) | 13.8 µM (inactive) | 17.5 µM (inactive) | 19 µM (inactive) | 18 µM (inactive) | 16.5 µM (inactive) | 14 µM (inactive) | 16 µM (inactive) | 15 µM (inactive) | 16.8 µM (inactive) | 19.8 µM (inactive) | 20 µM (inactive)
12 | Cc1cc(=O)oc2cc(OC(=O)Nc3ccccc3)ccc12 | 59 µM (inactive) | 86.3 µM (inactive) | 88.1 µM (inactive) | > 100 µM (inactive) | 61 µM (inactive) | 74.6 µM (inactive) | 25.4 µM (inactive) | > 100 µM (inactive) | 35.6 µM (inactive) | > 100 µM (inactive) | > 100 µM (inactive) | 41.9 µM (inactive) | 29.5 µM (inactive) | 73.1 µM (inactive) | 40.4 µM (inactive) | 64.4 µM (inactive) | 20.6 µM (inactive) | > 100 µM (inactive) | 27.2 µM (inactive) | > 100 µM (inactive)
13 | CCOC(=O)CCC(NC(=O)C(N)Cc1ccc(N(CCCl)CCCl)cc1)C(=O)OCC (stereo not given) | 1.5 µM (inactive) | 1.85 µM (inactive) | 0.377 µM (active) | 1.79 µM (inactive) | 0.667 µM (active) | 1.51 µM (inactive) | 1.82 µM (inactive) | 0.187 µM (active) | 0.446 µM (active) | 2.47 µM (inactive) | 3.01 µM (inactive) | 0.446 µM (active) | < 0.0182 µM (active) | 6.14 µM (inactive) | 0.675 µM (active) | 32.1 µM (inactive) | 0.0665 µM (active) | 0.624 µM (active) | < 0.0246 µM (active) | 1.64 µM (inactive)
14 | O=C1c2c(ccc3c2CCCC3)CC1Cc1ccc2c(c1)CCCC2 (stereo not given) | 22.6 µM (inactive) | 67 µM (inactive) | 27.2 µM (inactive) | 87.7 µM (inactive) | > 100 µM (inactive) | 45 µM (inactive) | 21.6 µM (inactive) | 63.8 µM (inactive) | 36.1 µM (inactive) | > 100 µM (inactive) | 47.3 µM (inactive) | 0.787 µM (active) | 9.08 µM (inactive) | > 100 µM (inactive) | > 100 µM (inactive) | > 100 µM (inactive) | 5.46 µM (inactive) | 28.8 µM (inactive) | 21.3 µM (inactive) | 39 µM (inactive)
